The source of these data is patent publication US9763445B2, “Safened herbicidal compositions comprising a pyridine carboxylic acid herbicide” (Dow AgroSciences, LLC, priority 2014, dated 2017).

Structures are written as SMILES.

The subject of one assay is common sunflower (HELAN). In words: Postemergence greenhouse trial, % visual injury on common sunflower. The format is in vivo, Helianthus annuus. The protocol:
(§1) Seeds of the desired test plant species were planted in Sun Gro MetroMix® 306 planting mixture, which typically has a pH of 6.0 to 6.8 and an organic matter content of about 30 percent, in plastic pots with a surface area of 103.2 square centimeters (cm^2). When required to ensure good germination and healthy plants, a fungicide treatment and/or other chemical or physical treatment was applied. The plants were grown for 7-36 days (d) in a greenhouse with an approximate 14-hour (h) photoperiod which was maintained at about 23° C. during the day and 22° C. during the night. Nutrients and water were added on a regular basis and supplemental lighting was provided with overhead metal halide 1000-Watt lamps as necessary. The plants were employed for testing when they reached the second or third true leaf stage.
(§2) Weighed amounts of technical material were dissolved in a volume of 97:3 volume per volume (v/v) acetone/dimethyl sulfoxide (DMSO) to stock solutions. […] The concentrated stock solutions were diluted with an aqueous mixture of 1.5% v/v of Agri-dex crop oil concentrate to provide the appropriate application rates. Compound requirements are based upon a 12 milliliter (mL) application volume at a rate of 187 liters per hectare (L/ha). Stocks solutions of the safeners were prepared following the same procedure. Spray solutions of the safeners and experimental compound mixtures were prepared by adding the stock solutions to the appropriate amount of dilution solution to form a 12 mL spray solution in two-way combinations. Formulated compounds were applied to the plant material with an overhead Mandel track sprayer equipped with 8002E nozzles calibrated to deliver 187 L/ha over an application area of 0.503 square meters (m^2) at a spray height of 18 inches (43 centimeters (cm)) above average plant canopy. Control plants were sprayed in the same manner with the solvent blank. All herbicide application (component a) rates are in g ae/ha and all safener (component b) rates are in g ai/ha.
(§3) The treated plants and control plants were placed in a greenhouse as described above and watered by sub-irrigation to prevent wash-off of the test compounds. After 20-22 d, the condition of the test plants as compared with that of the control plants was determined visually and scored on a scale of 0 to 100 percent where 0 corresponds to no injury and 100 corresponds to complete kill. The condition of the test plants was compared with that of the control plants as determined visually and scored on a scale of 0 to 100 percent, where 0 corresponds to no injury and 100 corresponds to complete kill. Colby's equation was used to determine the herbicidal effects expected from the mixtures.
The safener cloquintocet-acid and a number of agriculturally acceptable esters and salts (-mexyl, -dimethylammonium salt and -triethylammonium salt) were combined in varying ratios with compound 1 and applied to spring wheat (TRZAS), winter wheat (TRZAW), and spring barley (HORVS), and the phytotoxicity of the herbicidal compositions was measured. In addition, the efficacy of the herbicidal composition on pigweed (AMARE, Amaranthus retroflexus), nutsedge (CYPES, Cyperus esculentus), common sunflower (HELAN, Helianthus annuus), and common sorghum (SORVU, Sorghum vulgare).

A further assay concerns common sorghum (SORVU). Briefly: Postemergence greenhouse trial, % visual injury on common sorghum. The format is in vivo, Sorghum vulgare. The settings on record: for % visual injury, observed (Ob): SORVU. The gist of the method:
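Greenhouse crops at second to third true leaf stage sprayed postemergence at 187 L/ha with herbicide (g ae/ha) plus safener (g ai/ha) in acetone/DMSO diluted into 1.5% v/v Agri-dex. Injury scored visually versus solvent-blank controls after 20-22 d, 0 (none) to 100% (complete kill); expected mixture effects by Colby's equation.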

For another assay, the system named is chickweed (STEME). In words: Postemergence greenhouse trial, % visual injury on chickweed. The format is in vivo, Stellaria media. Particulars: for % visual injury, Ob: alone, 35 g/ha; for % visual injury, observed (Ob): STEME. Here is the method:
as §1, §2, §3
(§4) The safener cloquintocet-mexyl was combined with compound 1, compound 2, compound 4, compound 5, and compound 6, and applied to corn/maize (ZEAMX) and spring wheat (TRZAS) and the phytotoxicity of the herbicidal compositions was measured. In addition, the efficacy of the herbicidal composition on velvetleaf (ABUTH, Abutilon theophrasti), pigweed (AMARE, Amaranthus retroflexus), winter rape (BRSNW, Brassica napus), lambsquarters (CHEAL, Chenopodium album), thistle (CIRAR, Cirsium arvense), nutsedge (CYPES, Cyperus esculentus), poinsettia (EPHHL, Euphorbia heterophylla), wild buckwheat (POLCO, Polygonum convolvulus), giant foxtail (SETFA, Setaria faberi), and chickweed (STEME, Stellaria media) was evaluated. […]

A further assay has as its system shepherd's purse (CAPBP). Briefly: Postemergence greenhouse trial, % visual injury on shepherd's purse. The format is in vivo, Capsella bursa-pastoris.
The subject of the next assay is wild pansy (VIOTR). Briefly: Postemergence greenhouse trial, % visual injury on wild pansy. The format is in vivo, Viola tricolor. The protocol: as §1, §2
as §3, with “mixtures. […]” for “mixtures.”

The subject of another assay is velvetleaf (ABUTH). Briefly: Postemergence greenhouse trial, % visual injury on velvetleaf. Particulars: alone, 35 g/ha. The format is in vivo, Abutilon theophrasti. The protocol:
as §1, §2, §3
The safener cloquintocet-mexyl was combined with compound 1, compound 2, compound 4, compound 5, and compound 6, and applied to corn/maize (ZEAMX) and spring wheat (TRZAS) and the phytotoxicity of the herbicidal compositions was measured. In addition, the efficacy of the herbicidal composition on velvetleaf (ABUTH, Abutilon theophrasti), pigweed (AMARE, Amaranthus retroflexus), winter rape (BRSNW, Brassica napus), lambsquarters (CHEAL, Chenopodium album), thistle (CIRAR, Cirsium arvense), nutsedge (CYPES, Cyperus esculentus), poinsettia (EPHHL, Euphorbia heterophylla), wild buckwheat (POLCO, Polygonum convolvulus), giant foxtail (SETFA, Setaria faberi), and chickweed (STEME, Stellaria media) was evaluated.
The safener cloquintocet-mexyl was combined with compound 1, compound 2, compound 3, compound 7, compound 8, compound 9, compound 10, compound 11, compound 12, compound 13, compound 14, compound 15, compound 16, compound 17, compound 18, compound 19, and compound 20, and applied to spring wheat (TRZAS), winter wheat (TRZAW), and spring barley (HORVS) and the phytotoxicity of the herbicidal compositions was measured. […]

The subject of the next assay is poinsettia (EPHHL). Briefly: Postemergence greenhouse trial, % visual injury on poinsettia. The format is in vivo, Euphorbia heterophylla. The settings on record: alone, 35 g/ha. The protocol:
as §1
Weighed amounts of technical material were dissolved in a volume of 97:3 volume per volume (v/v) acetone/dimethyl sulfoxide (DMSO) to stock solutions. […] The concentrated stock solutions were diluted with an aqueous mixture of 1.5% v/v of Agri-dex crop oil concentrate to provide the appropriate application rates. Compound requirements are based upon a 12 milliliter (mL) application volume at a rate of 187 liters per hectare (L/ha). Stocks solutions of the safeners were prepared following the same procedure. […]
as §3, with “Colby's equation was used to determine the herbicidal effects expected from the mixtures.” left out
as §4

In a further assay the test system is green foxtail (SETVI). In words: Postemergence greenhouse trial, % visual injury on green foxtail. The format is in vivo, Setaria viridis.
[1] abbreviates: compound 2 4.380 + CQC-m 0 g/ha.

For `Nc1c(F)c(-c2ccc3cc[nH]c3c2F)nc(C(=O)O)c1Cl` [compound 1], the “% visual injury, observed (Ob)” value with common sunflower (HELAN) (compound 1 alone 20 g/ha) came out at 98%; with common sunflower (HELAN) (compound 1 alone 40 g/ha), 100%; with common sorghum (SORVU) (compound 1 alone 20 g/ha), 18%; with common sorghum (SORVU) (compound 1 alone 40 g/ha), 68%. The “% visual injury, Ob” value with chickweed (STEME) amounted to 100%.
In the case of `CO/C=N/c1c(F)c(-c2ccc3cc[nH]c3c2F)nc(C(=O)OC)c1Cl` [compound 10], the “% visual injury, Ob” value is given as 60% in the assay with shepherd's purse (CAPBP) (compound 8.75 g/ha, CQC-m 0) and 100% with shepherd's purse (CAPBP) (compound 35 g/ha, CQC-m 0).
For `Nc1cc(-c2ccc3cc[nH]c3c2F)nc(C(=O)O)c1Cl` [compound 15], the “% visual injury, Ob” value with wild pansy (VIOTR) (VIOTR, compound 4.375 g/ha, CQC-m 0 g/ha) worked out at 0%; in the assay on wild pansy (VIOTR) (VIOTR, compound 8.75 g/ha, CQC-m 0 g/ha) it was 10%; with wild pansy (VIOTR) (VIOTR, compound 17.5 g/ha, CQC-m 0 g/ha), 10%; in the assay with wild pansy (VIOTR) (VIOTR, compound 35 g/ha, CQC-m 0 g/ha), 20%; with wild pansy (VIOTR) (VIOTR, compound 70 g/ha, CQC-m 0 g/ha), 30%.
Turning to `COc1c(C(=O)O)nc(-c2ccc3cc[nH]c3c2F)c(F)c1N` [compound 13], the “% visual injury, Ob” value in the assay with shepherd's purse (CAPBP) (compound 4.375 g/ha, CQC-m 0 g/ha) was 85%; with shepherd's purse (CAPBP) (compound 8.75 g/ha, CQC-m 0 g/ha), 100%; in the assay with shepherd's purse (CAPBP) (compound 17.5 g/ha, CQC-m 0 g/ha), 100%; in the assay with shepherd's purse (CAPBP) (compound 35 g/ha, CQC-m 0 g/ha) it was 100%; in the assay with shepherd's purse (CAPBP) (compound 70 g/ha, CQC-m 0 g/ha), 100%.
Consider `CCCCCC(C)OC(=O)COc1ccc(Cl)c2cccnc12` (stereo not shown) [CQC-m, cloquintocet-mexyl, reference compound], for which the “% visual injury, Ob” value worked out at 0% in the assay with velvetleaf (ABUTH); 0% in the assay with poinsettia (EPHHL); 0% in the assay with common sorghum (SORVU) (alone, 35 g/ha); 0% in the assay on chickweed (STEME); 0% with wild pansy (VIOTR) (VIOTR, 4.375 g/ha, applied alone); 0% in the assay with wild pansy (VIOTR) (VIOTR, 8.75 g/ha, applied alone). The “% visual injury, Ob” value in the assay on wild pansy (VIOTR) (VIOTR, 17.5 g/ha, applied alone) was 0%; in the assay with wild pansy (VIOTR) (VIOTR, 35 g/ha, applied alone), 0%; in the assay on wild pansy (VIOTR) (VIOTR, 70 g/ha, applied alone), 0%; with wild pansy (VIOTR) (VIOTR, compound 0 g/ha, CQC-m 4.375 g/ha), 0%; in the assay on wild pansy (VIOTR) (VIOTR, compound 0 g/ha, CQC-m 8.75 g/ha), 0%; in the assay on wild pansy (VIOTR) (VIOTR, compound 0 g/ha, CQC-m 17.5 g/ha), 0%. In addition, the “% visual injury, Ob” value with wild pansy (VIOTR) (VIOTR, compound 0 g/ha, CQC-m 35 g/ha) is given as 0%; in the assay on wild pansy (VIOTR) (VIOTR, compound 0 g/ha, CQC-m 70 g/ha), 0%; in the assay with wild pansy (VIOTR) (alone, 35 g/ha), 0%; in the assay with shepherd's purse (CAPBP) (compound 0, CQC-m 4.375 g/ha), 0%; in the assay on shepherd's purse (CAPBP) (compound 0, CQC-m 8.75 g/ha), 0%; in the assay on shepherd's purse (CAPBP) (compound 0, CQC-m 17.5 g/ha) it was 0%. Besides, the “% visual injury, Ob” value in the assay with shepherd's purse (CAPBP) (compound 0, CQC-m 35 g/ha) came out at 0%; with shepherd's purse (CAPBP) (compound 0, CQC-m 70 g/ha) it was 0%; in the assay on shepherd's purse (CAPBP) (compound 0 g/ha, CQC-m 4.375 g/ha), 0%; in the assay on shepherd's purse (CAPBP) (compound 0 g/ha, CQC-m 8.75 g/ha), 0%; in the assay with shepherd's purse (CAPBP) (compound 0 g/ha, CQC-m 17.5 g/ha) it was 0%; in the assay with shepherd's purse (CAPBP) (compound 0 g/ha, CQC-m 35 g/ha), 0%. In addition, the “% visual injury, Ob” value in the assay with shepherd's purse (CAPBP) (compound 0 g/ha, CQC-m 70 g/ha) was 0%. Besides, the “% visual injury, observed (Ob)” value in the assay on common sunflower (HELAN) (safener alone 2.5 g/ha), with common sunflower (HELAN) (safener alone 5 g/ha), in the assay with common sunflower (HELAN) (safener alone 10 g/ha), with common sunflower (HELAN) (safener alone 20 g/ha), in the assay on common sorghum (SORVU) (safener alone 2.5 g/ha) and with common sorghum (SORVU) (safener alone 5 g/ha) was 0% throughout. For the same compound, the “% visual injury, observed (Ob)” value in the assay on common sorghum (SORVU) (safener alone 10 g/ha) and in the assay on common sorghum (SORVU) (safener alone 20 g/ha) was 0% throughout.
On to `Nc1c(F)c(-c2ccc3cc[nH]c3c2F)nc(C(=O)OCc2ccccc2)c1Cl` [compound 2], for which the “% visual injury, Ob” value in the assay with velvetleaf (ABUTH) came to 80%; in the assay on poinsettia (EPHHL), 100%. In addition, the “% visual injury, observed (Ob)” value in the assay on green foxtail (SETVI) (compound 2 35 + CQC-m 0 g/ha) came out at 100%; in the assay with green foxtail (SETVI) (compound 2 70 + CQC-m 0 g/ha) it was 97%; with green foxtail (SETVI) (compound 2 140 + CQC-m 0 g/ha), 98%; in the assay on chickweed (STEME) (setting [1]), 25%; in the assay on chickweed (STEME) (compound 2 8.75 + CQC-m 0 g/ha), 68%; in the assay with chickweed (STEME) (compound 2 17.5 + CQC-m 0 g/ha), 97%. The “% visual injury, observed (Ob)” value in the assay on chickweed (STEME) (compound 2 35 + CQC-m 0 g/ha) amounted to 100%; in the assay with chickweed (STEME) (compound 2 70 + CQC-m 0 g/ha), 100%; with shepherd's purse (CAPBP) (setting [1]), 20%; with shepherd's purse (CAPBP) (compound 2 8.75 + CQC-m 0 g/ha), 30%; in the assay with shepherd's purse (CAPBP) (compound 2 17.5 + CQC-m 0 g/ha), 100%; in the assay with shepherd's purse (CAPBP) (compound 2 35 + CQC-m 0 g/ha), 100%. In the assay with shepherd's purse (CAPBP) (compound 2 70 + CQC-m 0 g/ha), the “% visual injury, observed (Ob)” value turned out to be 100%.
With `COC(=O)c1nc(-c2ccc3cc[nH]c3c2F)c(F)c(N)c1OC` [compound 12], the “% visual injury, Ob” value in the assay with shepherd's purse (CAPBP) (compound 8.75 g/ha, CQC-m 0) is given as 100%; with shepherd's purse (CAPBP) (compound 35 g/ha, CQC-m 0), 100%.
